Earlier results in US20040002514A1, “Topical use of hydroxyeicosatetraenoic acid compounds to treat psoriasis” (Alcon, Inc., priority 2002, published 2004).

Tests used:
[1] = tested on: IL-8 production by human bone marrow stromal cells; settings: 1 μM to 0.1 nM
[2] = tested on: leukotriene B4 production or its activity
[3] = tested on: IL-6 synthesis by bone marrow stromal cells
colitis = settings: in vivo

## CCCCC[C@H](O)/C=C/C=C\C/C=C\C/C=C\CCCC(=O)O [15-HETE, 15-Hydroxyeicosatetraenoic acid]
[1]
  effect on spontaneous and serum-induced production of IL-8: no effect
[2]
  effect on leukotriene B4 production or its activity: inhibitory effects
[3]
  effect on spontaneous, serum- and cytokine-induced IL-6 synthesis: no effect
colitis
  anti-inflammatory properties in colitis: minor anti-inflammatory properties
Psoriatic skin lesions; injected into psoriatic skin lesions
  improvement of psoriasis: can improve psoriasis
Psoriatic skin lesions; intralesional injection, 0.1 ml of 10 lmol/L
  amount required to cause a clinical effect: 300 ng
